Experimental data from ChEMBL document CHEMBL3399973, “Synthesis and biological evaluation of isoxazoline derivatives as potent M₁ muscarinic acetylcholine receptor agonists” (Bioorg Med Chem Lett, 2015).
pEC50: −log10 of the molar value.

Key:
[1] = target: T1, Muscarinic acetylcholine receptor M1 (Homo sapiens, UniProt P11229)
T1 sequence (P11229 whole entry): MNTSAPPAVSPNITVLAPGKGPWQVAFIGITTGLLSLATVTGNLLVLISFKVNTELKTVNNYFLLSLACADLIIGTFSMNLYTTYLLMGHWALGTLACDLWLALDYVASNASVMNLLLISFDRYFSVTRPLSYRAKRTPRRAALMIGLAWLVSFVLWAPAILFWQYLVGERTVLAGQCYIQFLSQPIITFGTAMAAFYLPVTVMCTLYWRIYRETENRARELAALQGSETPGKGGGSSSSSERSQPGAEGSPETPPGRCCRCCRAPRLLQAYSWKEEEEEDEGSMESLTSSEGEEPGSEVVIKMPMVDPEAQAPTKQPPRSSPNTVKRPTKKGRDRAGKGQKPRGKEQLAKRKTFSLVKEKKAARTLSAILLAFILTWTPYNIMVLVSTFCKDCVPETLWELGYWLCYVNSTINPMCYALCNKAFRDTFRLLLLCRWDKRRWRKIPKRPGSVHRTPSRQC

[2] = target: T2, Muscarinic acetylcholine receptor M1 (Homo sapiens) (UniProt P11229); details: HEK293, at 10 µM
T2 sequence (whole entry): T1 sequence (P11229 whole entry)

[3] = target: T2, Muscarinic acetylcholine receptor M1 (Homo sapiens); details: HEK293, at 10 µM; remark: listed apart in the source
[4] = target: T2, Muscarinic acetylcholine receptor M1 (Homo sapiens); assay: Agonist activity at human m1 muscarinic acetylcholine receptor expressed in HEK293 cells assessed as activation of ERK1/2 phosphorylation after 2 mins by Western blotting analysis; type: cell-based
[5] = target: T2, Muscarinic acetylcholine receptor M1 (Homo sapiens); assay: Agonist activity at human m1 muscarinic acetylcholine receptor expressed in HEK293 cells assessed as relative ratio of phosphorylated ERK1/2 to ERK1/2 at 1 uM after 2 mins by Western blotting analysis relative to 100 uM acetylcholine response; type: cell-based
[6] = target: T2, Muscarinic acetylcholine receptor M1 (Homo sapiens); assay: Agonist activity at human m1 muscarinic acetylcholine receptor expressed in HEK293 cells assessed as relative ratio of phosphorylated ERK1/2 to ERK1/2 at 10 uM after 2 mins by Western blotting analysis relative to 100 uM acetylcholine response; type: cell-based
[7] = target: T2, Muscarinic acetylcholine receptor M1 (Homo sapiens); assay: Agonist activity at human m1 muscarinic acetylcholine receptor expressed in HEK293 cells assessed as relative ratio of phosphorylated ERK1/2 to ERK1/2 at 100 uM after 2 mins by Western blotting analysis relative to 100 uM acetylcholine response; type: cell-based
SH-SY5Y [8] = assay: Induction of sAPPalpha release in human SH-SY5Y cells after 1 hr by immunoblotting analysis; type: functional, cell-based
SH-SY5Y [9] = assay: Induction of sAPPalpha release in human SH-SY5Y cells assessed as fold changed at 0.01 uM after 1 hr by immunoblotting analysis relative to 100 uM acetylcholine response; type: functional
SH-SY5Y [10] = assay: Induction of sAPPalpha release in human SH-SY5Y cells assessed as fold changed at 0.1 uM after 1 hr by immunoblotting analysis relative to 100 uM acetylcholine response; type: functional
SH-SY5Y [11] = assay: Induction of sAPPalpha release in human SH-SY5Y cells assessed as fold changed at 1 uM after 1 hr by immunoblotting analysis relative to 100 uM acetylcholine response; type: functional

SMILES	pEC50 [1]	Efficacy [2] [%]	inhibition [3] [%]	further results
CN1CCC=C(c2ccon2)C1	6.11	95.8	–	–
CSCC1CC(C2=CCCN(C)C2)=NO1 (stereo not drawn)	5.25	61.3	–	–
CCOC1CC(C2=CCCN(C)C2)=NO1 (stereo not drawn)	–	2.4	34	–
CN1CCC=C(C2=NOC(CO)C2)C1 (stereo not drawn)	–	1.7	12.3	–
O=C1CCCN1CC#CCN1CCCC1 [OXOTREMORINE]	8.80	108	–	–
CO/N=C/C1=CCCN(C)C1 [MILAMELINE]	7.68	83	–	–
CN1CCC=C(C2=NOC(Sc3ccccc3)C2)C1 (stereo not drawn)	–	2.3	49.4	–

Second part, led by results:

pEC50 [1]	Efficacy [2] [%]	inhibition [3] [%]	SMILES	further results
–	2.2	20.7	O=C1CCCN1C1CC(CN2CCCCC2)=NO1 (stereo not drawn)	–
–	2.2	20.7	CN1CCCC(C2=NOC(N3CCCC3=O)C2)C1 (stereo not drawn)	–
5.12	58.8	–	CN1CCC=C(C2=NOC(C#N)C2)C1 (stereo not drawn)	–
–	2.2	20.7	O=C1CCCN1C1CC(CCN2CCCCC2)=NO1 (stereo not drawn)	–
–	2.2	20.7	O=C1CCCN1C1CC(CN2CCCC2)=NO1 (stereo not drawn)	–
4.76	36.9	–	CN1CCC=C(C2=NOC(O)C2)C1 (stereo not drawn)	–
–	2.2	20.7	O=C1CCCN1C1CC(CCN2CCCC2)=NO1 (stereo not drawn)	–
7.51	99.5	–	CN1CCC=C(C2=NOC(N3CCCC3=O)C2)C1 (stereo not drawn)	Activity [4]: Dose-dependent effect; Ratio [5]: 1.3; Ratio [6]: 1.7; Ratio [7]: 1.8; Activity (SH-SY5Y [8]): Dose-dependent effect; fold change (FC) (SH-SY5Y [9]): 1.5; fold change (FC) (SH-SY5Y [10]): 2.5; fold change (FC) (SH-SY5Y [11]): 3.4
